# Patent US5430157A, “Reduced phenanthrenes” (Eli Lilly and Company, priority 1993, dated 1995)
# Molecular target: T1, Type II 5α-reductase from human prostate (Homo sapiens, UniProt P31213)
# T1 construct: Human prostate tissue from prostate surgeries was obtained immediately after surgery, frozen on dry ice; from tissue; host or cells: human prostate tissue from surgery; homogenate, 100,000 x g pellet resuspended
# T1 sequence (P31213 1-254): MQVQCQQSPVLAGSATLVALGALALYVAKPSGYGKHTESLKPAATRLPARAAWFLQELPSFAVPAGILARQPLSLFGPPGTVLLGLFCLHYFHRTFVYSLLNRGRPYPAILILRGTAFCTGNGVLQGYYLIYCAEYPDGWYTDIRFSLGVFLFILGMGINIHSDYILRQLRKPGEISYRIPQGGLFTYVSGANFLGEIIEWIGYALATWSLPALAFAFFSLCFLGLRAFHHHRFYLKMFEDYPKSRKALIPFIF
# Assay: Human Type II steroid 5α-reductase assay (conversion of [3H]-testosterone to DHT)
# Format: biochemical
# Settings: human prostate enzyme preparation, 50 nM [3H]-testosterone, pH 5.5, 30 min at 25°, compared to control reaction mixtures; read-out: 50% inhibitory concentration
# Procedure: Methodology of Human Type II Steroid 5α-Reductase Assays
# Preparation of Type II 5α-Reductase from Human Prostate:
# Human prostate tissue from prostate surgeries was obtained immediately after surgery, frozen on dry ice and stored at -80° C. The tissue was frozen with liquid nitrogen and pulverized to powder. The powder was homogenized in ice-cold buffer (20 mM sodium phosphate, pH 6.5) using a Brinkmann Polvtron (Westbury, N.Y.) with a PTA 10-S probe and a setting of 7. The homogenization procedure consisted of four 15 second pulses. Connective tissue was cleared from the probe with forceps between pulses. […]
# This enzyme assay is based on the conversion of [^3 H]-testosterone to [^3 H]-5α-dihydrotestosterone (DHT) and other 5α-reduced metabolites. […] Essentially no androsterone was detected. […]
# The [^3 H]-testosterone substrate and its metabolites were separated by chromatography using a C-18 reversed phase column (Beckman Ultrasphere 5 μm spherical 80A pore, part no. 235329, 4.6 mm i.d..div.25 mm length) with an isocratic mobile phase (46 water: 46 methanol: 8 tetrahydrofuran by volume). […] A 400 μl aliquot was injected onto the column and radioactivity was determined using a Beckman 171 in-line flow radioisotope detector in conjunction with Rainin Dynamax™ software and a Macintosh computer. […]
row,IC50 [µM],Structure (SMILES)
1,0.6,"C[C@]12CCC(c3nnn[nH]3)=CC1=CCc1cc(Cl)ccc12 [Example 2, (-)-2-Chloro-4b-methyl-4b,5,6,10-tetrahydrophenanthrene-7-(1-tetrazole)]"
2,0.15,"C[C@]12CCC(C(=O)O)=CC1=CCc1cc(Cl)ccc12 [Example 1, (-)-2-Chloro-4b-methyl-4b,5,6,10-tetrahydrophenanthrene-7-carboxylic acid]"
